Measurements as given in patent US11753379B2, “Process for forming 2-hydroxypyridine-1-oxide or derivatives thereof” (Clariant International Ltd., priority 2018, dated 2023).
Where a name gives a salt, the structure may show the parent alone.

Legend:
[1] = Solubility testing in various solvents; type: physicochemical; conditions: for Solubility: directly after addition and after standing for a week
Method: A compound according to Formula (2), namely 1-hydroxy-4-methyl-6-(2,4,4-trimethylpentyl)-2(1H)-pyridone, is tested for solubility in various solvents. A 10% (w/w) solution of this compound is tested. The solubility is tested directly after addition as well as after being left to stand for a week.

[2] = system: various microbes; assay: MIC tests overall, comparison versus Piroctone Olamine; type: cell-based
Method: (§1) A compound according to Formula (2), namely 1-hydroxy-4-methyl-6-(2,4,4-trimethyl pentyl)-2(1H)-pyridone (named as Piroctone in the below table), is tested for efficacy versus various microbes. Comparison is made versus Piroctone Olamine (=Octopirox®).

[3] = system: Candida albicans DSM 1386; assay: MIC test, efficacy versus microbes; type: cell-based; conditions: DSM1386, pH 6.5, Octopirox tested as 5%, Piroctone as 3.98% in butylpolyglycol, read-out: MIC in ppm pH 6.5 (Malassezia Agar)
Method: as §1

[4] = system: Malassezia furfur DSM 6170; assay: MIC test, efficacy versus microbes; type: cell-based; conditions: DSM6170, pH 6.5, Octopirox tested as 5%, Piroctone as 3.98% in butylpolyglycol, read-out: MIC in ppm pH 6.5 (Malassezia Agar)
Method: as §1

[5] = system: Malassezia globosa ATCC 4889; assay: MIC test, efficacy versus microbes; type: cell-based; conditions: ATCC4889, pH 6.5, Octopirox tested as 5%, Piroctone as 3.98% in butylpolyglycol, read-out: MIC in ppm pH 6.5 (Malassezia Agar)
Method: as §1

[6] = system: Malassezia pachydermatis DSM 6172; assay: MIC test, efficacy versus microbes; type: cell-based; conditions: DSM6172, pH 6.5, Octopirox tested as 5%, Piroctone as 3.98% in butylpolyglycol, read-out: MIC in ppm pH 6.5 (Malassezia Agar)
Method: as §1

[7] = system: Saccharomyces cerevisiae DSM 70449; assay: MIC test, efficacy versus microbes; type: cell-based; conditions: DSM70449, pH 6.5, Octopirox tested as 5%, Piroctone as 3.98% in butylpolyglycol, read-out: MIC in ppm pH 6.5 (Malassezia Agar)
Method: as §1

Cc1cc(CC(C)CC(C)(C)C)n(O)c(=O)c1 (stereo not shown) [Piroctone, 1-hydroxy-4-methyl-6-(2,4,4-trimethylpentyl)-2(1H)-pyridone]
Comments (solubility observation) ([1]; 10% (w/w) in 1,3-Dioxolane): Not soluble. | Comments (solubility observation) ([1]; 10% (w/w) in 2-Methyltetrahydrofuran): Not soluble. | Comments (solubility observation) ([1]; 10% (w/w) in 3-Pentanone): Not completely soluble, supernatant | Comments (solubility observation) ([1]; 10% (w/w) in Acetone (purity >99%)): Dissolves to a large extend. | Comments (solubility observation) ([1]; 10% (w/w) in Ethanol): Dissolves slowly leading to a clear | Comments (solubility observation) ([1]; 10% (w/w) in Isopropanol): Not completely dissolved, | Comments (solubility observation) ([1]; 10% (w/w) in Methanol): Soluble. Resulting soltuion is clear. | Solubility ([1]; 10% (w/w) solution in 1,3-Dioxolane): no | Solubility ([1]; 10% (w/w) solution in 2-Methyltetrahydrofuran): no | Solubility ([1]; 10% (w/w) solution in 3-Pentanone): no | Solubility ([1]; 10% (w/w) solution in Acetone (purity >99%)): no | Solubility ([1]; 10% (w/w) solution in Ethanol): excellently and yes | Solubility ([1]; 10% (w/w) solution in Isopropanol): no | Solubility ([1]; 10% (w/w) solution in Methanol): excellently and yes | Solubility ([1]; 10% (w/w) solution in tert. Butanol (2.5% H2O)): no | Mass efficacy better than Piroctone Olamine ([2]; antimicrobial efficacy per mass): around 20% | Activity in MIC tests compared with Piroctone Olamine ([2]; conclusion from Experiment 2): same activity in MIC tests at a lower concentration than Piroctone Olamine

Cc1cc(CC(C)CC(C)(C)C)n(O)c(=O)c1 (stereo not shown) [Octopirox, monoethanolamine salt of 1-hydroxy-4-methyl-6-(2,4,4-trimethylpentyl)-2(1H)-pyridone]
MIC [3]: 500 µg/mL | MIC [4]: 500 µg/mL | MIC [5]: 500 µg/mL | MIC [6]: 500 µg/mL | MIC [7]: 500 µg/mL
